Source: patent US9758492B2, “IDO inhibitors” (Bristol-Myers Squibb Company, priority 2013, dated 2017)

Molecular target: IDO (Homo sapiens, UniProt P14902)
Experiment: LLE_IDO_ABS_DR (IDO assay)

Sequence of IDO (P14902 whole entry): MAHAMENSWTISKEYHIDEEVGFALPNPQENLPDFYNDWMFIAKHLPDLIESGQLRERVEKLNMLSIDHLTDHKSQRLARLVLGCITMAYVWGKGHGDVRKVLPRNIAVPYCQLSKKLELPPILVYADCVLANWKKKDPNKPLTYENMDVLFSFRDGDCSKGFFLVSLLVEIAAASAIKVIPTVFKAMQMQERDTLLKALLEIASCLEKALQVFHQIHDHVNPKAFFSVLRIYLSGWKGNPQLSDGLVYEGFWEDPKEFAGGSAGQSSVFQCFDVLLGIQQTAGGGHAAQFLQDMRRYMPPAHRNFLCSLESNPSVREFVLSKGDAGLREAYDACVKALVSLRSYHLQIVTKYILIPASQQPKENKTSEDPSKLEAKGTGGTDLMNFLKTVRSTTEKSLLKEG

Row | Compound | IC50 [nM]
1 | Cc1ccc(NC(=O)Nc2cc(-c3ccccc3-c3nnn[nH]3)ccc2N(CCCC(F)(F)F)Cc2ccc(Cl)cc2)cc1 [Example 320, 1-(4-((4-chlorobenzyl)(4,4,4-trifluorobutyl)amino)-2′-(1H-tetrazol-5-yl)-[1,1′-biphenyl]-3-yl)-3-(p-tolyl)urea] | 4.85
2 | O=C(Nc1cc(-c2ccccc2-c2nnn[nH]2)ccc1N(CCCC(F)(F)F)Cc1ccc(Cl)cc1)Nc1ccccc1C(F)(F)F [Example 321, 1-(4-((4-chlorobenzyl)(4,4,4-trifluorobutyl)amino)-2′-(1H-tetrazol-5-yl)-[1,1′-biphenyl]-3-yl)-3-(2-(trifluoromethyl)phenyl)urea] | 610
3 | O=C(Nc1ccc(OC(F)(F)F)cc1)Nc1cc(-c2ccccc2-c2nnn[nH]2)ccc1N(CCC(F)(F)F)Cc1ccc(F)cc1 [Example 323, 1-(4-((4-fluorobenzyl)(3,3,3-trifluoropropyl)amino)-2′-(1H-tetrazol-5-yl)-[1,1′-biphenyl]-3-yl)-3-(4-(trifluoromethoxy)phenyl)urea] | 540
4 | O=C(Nc1ccc(F)cc1F)Nc1cc(-c2ccccc2-c2nnn[nH]2)ccc1N(CCC(F)(F)F)Cc1ccc(F)cc1 [Example 324, 1-(2,4-difluorophenyl)-3-(4-((4-fluorobenzyl) (3,3,3-trifluoropropyl)amino)-2′-(1H-tetrazol-5-yl)-[1,1′-biphenyl]-3-yl) urea] | 160
5 | Cc1ccc(NC(=O)Nc2cc(-c3ccccc3-c3nnn[nH]3)ccc2N(CCC(F)(F)F)Cc2ccc(F)cc2)cc1 [Example 325, 1-(4-((4-fluorobenzyl)(3,3,3-trifluoropropyl)amino)-2′-(1H-tetrazol-5-yl)-[1,1′-biphenyl]-3-yl)-3-(p-tolyl)urea] | 90
6 | O=C(Nc1cc(-c2ccccc2-c2nnn[nH]2)ccc1N(CCC(F)(F)F)Cc1ccc(F)cc1)Nc1ccccc1C(F)(F)F [Example 326, 1-(4-((4-fluorobenzyl)(3,3,3-trifluoropropyl)amino)-2′-(1H-tetrazol-5-yl)-[1,1′-biphenyl]-3-yl)-3-(2-(trifluoromethyl)phenyl)urea] | 1330
7 | O=C(Nc1ccc(OC(F)(F)F)cc1)Nc1cc(-c2ccccc2-c2nnn[nH]2)ccc1N(CCC(F)(F)F)Cc1ccc(C(F)(F)F)cc1 [Example 327, 1-(2′-(1H-tetrazol-5-yl)-4-((4-(trifluoromethyl)benzyl)(3,3,3-trifluoropropyl)amino)-[1,1′-biphenyl]-3-yl)-3-(4-(trifluoromethoxy)phenyl)urea] | 260
8 | O=C(Nc1cc(-c2ccccc2-c2nnn[nH]2)ccc1N(CCC(F)(F)F)Cc1ccc(C(F)(F)F)cc1)Nc1ccccc1C(F)(F)F [Example 328, 1-(2′-(1H-tetrazol-5-yl)-4-((4-(trifluoromethyl)benzyl)(3,3,3-trifluoropropyl)amino)-[1,1′-biphenyl]-3-yl)-3-(2-(trifluoromethyl)phenyl)urea] | 390
9 | Cc1ccc(NC(=O)Nc2cc(-c3ccccc3-c3nnn[nH]3)ccc2N(CCC(F)(F)F)Cc2ccc(C(F)(F)F)cc2)cc1 [Example 329, 1-(2′-(1H-tetrazol-5-yl)-4-((4-(trifluoromethyl)benzyl)(3,3,3-trifluoropropyl)amino)-[1,1′-biphenyl]-3-yl)-3-(p-tolyl)urea] | 4.03
10 | O=C(Nc1ccc(F)cc1F)Nc1cc(-c2ccccc2-c2nnn[nH]2)ccc1N(CCC(F)(F)F)Cc1ccc(C(F)(F)F)cc1 [Example 330, 1-(2′-(1H-tetrazol-5-yl)-4-((4-(trifluoromethyl)benzyl)(3,3,3-trifluoropropyl)amino)-[1,1′-biphenyl]-3-yl)-3-(2,4-difluorophenyl) urea] | 20
11 | O=C(Nc1ccc(OC(F)(F)F)cc1)Nc1cc(-c2ccccc2-c2nnn[nH]2)ccc1N(CCc1ccccc1)CCC(F)(F)F [Example 331, 1-(4-(phenethyl(3,3,3-trifluoropropyl)amino)-2′-(1H-tetrazol-5-yl)-[1,1′-biphenyl]-3-yl)-3-(4-(trifluoromethoxy)phenyl)urea] | 160
12 | Cc1ccc(NC(=O)Nc2cc(-c3ccccc3-c3nnn[nH]3)ccc2N(CCc2ccccc2)CCC(F)(F)F)cc1 [Example 334, 1-(4-(phenethyl(3,3,3-trifluoropropyl)amino)-2′-(1H-tetrazol-5-yl)-[1,1′-biphenyl]-3-yl)-3-(p-tolyl)urea] | 20
13 | O=C(Nc1cc(-c2ccccc2-c2nnn[nH]2)ccc1N(CCC(F)(F)F)Cc1ccc(Cl)cc1Cl)Nc1ccccc1C(F)(F)F [Example 335, 1-(4-((2,4-dichlorobenzyl)(3,3,3-trifluoropropyl)amino)-2′-(1H-tetrazol-5-yl)-[1,1′-biphenyl]-3-yl)-3-(2-(trifluoromethyl)phenyl)urea] | 1080
14 | O=C(Nc1ccc(F)cc1F)Nc1cc(-c2ccccc2-c2nnn[nH]2)ccc1N(CCC(F)(F)F)Cc1ccc(Cl)cc1Cl [Example 336, 1-(4-((2,4-dichlorobenzyl)(3,3,3-trifluoropropyl)amino)-2′-(1H-tetrazol-5-yl)-[1,1′-biphenyl]-3-yl)-3-(2,4-difluorophenyl) urea] | 340
15 | O=C(Nc1ccc(OC(F)(F)F)cc1)Nc1cc(-c2ccccc2-c2nnn[nH]2)ccc1N(CCC(F)(F)F)Cc1ccc(Cl)cc1Cl [Example 337, 1-(4-((2,4-dichlorobenzyl)(3,3,3-trifluoropropyl)amino)-2′-(1H-tetrazol-5-yl)-[1,1′-biphenyl]-3-yl)-3-(4-(trifluoromethoxy)phenyl)urea] | 410
16 | O=C(Nc1cc(-c2ccccc2-c2nnn[nH]2)ccc1N(CCC(F)(F)F)Cc1ccc(F)cc1C(F)(F)F)Nc1ccccc1C(F)(F)F [Example 338, 1-(4-((4-fluoro-2-(trifluoromethyl)benzyl)(3,3,3-trifluoropropyl)amino)-2′-(1H-tetrazol-5-yl)-[1,1′-biphenyl]-3-yl)-3-(2-(trifluoromethyl)phenyl)urea] | 490
17 | O=C(Nc1ccc(OC(F)(F)F)cc1)Nc1cc(-c2ccccc2-c2nnn[nH]2)ccc1N(CCC(F)(F)F)Cc1ccc(F)cc1C(F)(F)F [Example 339, 1-(4-((4-fluoro-2-(trifluoromethyl)benzyl)(3,3,3-trifluoropropyl)amino)-2′-(1H-tetrazol-5-yl)-[1,1′-biphenyl]-3-yl)-3-(4-(trifluoromethoxy)phenyl)urea] | 160
18 | O=C(Nc1cc(-c2ccccc2-c2nnn[nH]2)ccc1N(CCC(F)(F)F)Cc1ccc(OC(F)(F)F)cc1)Nc1ccccc1C(F)(F)F [Example 342, 1-(2′-(1H-tetrazol-5-yl)-4-((4-(trifluoromethoxy)benzyl)(3,3,3-trifluoropropyl)amino)-[1,1′-biphenyl]-3-yl)-3-(2-(trifluoromethyl)phenyl)urea] | 170
19 | O=C(Nc1ccc(OC(F)(F)F)cc1)Nc1cc(-c2ccccc2-c2nnn[nH]2)ccc1N(CCC(F)(F)F)Cc1ccccn1 [Example 343, 1-(4-((pyridin-2-ylmethyl)(3,3,3-trifluoropropyl)amino)-2′-(1H-tetrazol-5-yl)-[1,1′-biphenyl]-3-yl)-3-(4-(trifluoromethoxy)phenyl)urea] | 230
20 | O=C(Nc1cc(-c2ccccc2-c2nnn[nH]2)ccc1N(CCC(F)(F)F)Cc1ccccn1)Nc1ccccc1C(F)(F)F [Example 345, 1-(4-((pyridin-2-ylmethyl)(3,3,3-trifluoropropyl)amino)-2′-(1H-tetrazol-5-yl)-[1,1′-biphenyl]-3-yl)-3-(2-(trifluoromethyl)phenyl)urea] | 820
